Reference: article PMC12664280, “Integrative transcriptomics and peptidomics approach reveals unexpectedly diverse endogenous secretory peptides in Odorrana grahami frog skin” (BMC Biology, 2025)
In brackets after ≈: the same amount, converted by molar mass. Where a SMILES comes first, the peptide text is derived from it. Bridges are numbered along the chain shown (N, C = ends).

Legend:
Format in all cases: cell-based
[1] = test system: Staphylococcus aureus ATCC 29213; test: microbe, parasite or virus in culture
Procedure: (§1) Ranatuerin-2P-OG1 synthesis was performed by Royobiotech Co., Ltd. (Shanghai, China) using solid-phase peptide synthesis. The crude peptide was purified by RP-HPLC and its purity was confirmed to exceed 90% via ESI-MS analysis. Antimicrobial assays with various microbial strains were conducted, including gram-positive Staphylococcus aureus ATCC 29213 and its methicillin-resistant variant (MRSA) CIB 8546, Enterococcus faecalis ATCC 29212, gram-negative Pseudomonas aeruginosa ATCC 27853 and Escherichia coli ATCC 25922, and fungal Candida albicans CCMCC(F) 98001. Bacterial cultures were maintained in cation-adjusted Mueller-Hinton broth (MHB) at 35°C for 16-20 h, whereas fungal cultures were grown in Sabouraud dextrose broth (SDB) at 28°C for 48 h.

[2] = test system: Enterococcus faecalis ATCC 29212; test: microbe, parasite or virus in culture
Procedure: as §1

[3] = test system: Escherichia coli ATCC 25922; test: microbe, parasite or virus in culture
Procedure: as §1

[4] = test system: methicillin-resistant Staphylococcus aureus (MRSA) CIB 8546; test: microbe, parasite or virus in culture
Procedure: as §1

[5] = test system: Pseudomonas aeruginosa ATCC 27853; test: Antimicrobial assay, MIC by broth microdilution; conditions: ATCC27853, highest test concentration 128 μg/mL, read-out: minimum inhibitory concentration (MIC), Pseudomonas aeruginosa
Procedure: as §1

[6] = test system: Candida albicans CCMCC(F) 98001
Procedure: as §1

SMILES | MIC ([1]; ATCC29213, broth microdilution, Staphylococcus aureus ATCC 29213, read-out: minimum inhibitory concentration (MIC), Staphylococcus aureus) [µg/mL] | MIC ([2]; ATCC29212, broth microdilution, Enterococcus faecalis ATCC 29212, read-out: minimum inhibitory concentration (MIC), Enterococcus faecalis) [µg/mL] | MIC ([3]; ATCC25922, broth microdilution, Escherichia coli ATCC 25922, read-out: minimum inhibitory concentration (MIC), Escherichia coli) [µg/mL] | MIC ([4]; Staphylococcus aureus, broth microdilution, MRSA CIB 8546, read-out: minimum inhibitory concentration (MIC), MRSA) [µg/mL] | MIC [5] [µg/mL] | minimum inhibitory concentration (MIC), Staphylococcus aureus ([1]; ATCC 29213) [µg/mL] | minimum inhibitory concentration (MIC), Enterococcus faecalis ([2]; ATCC 29212) [µg/mL] | minimum inhibitory concentration (MIC), Escherichia coli ([3]; ATCC 25922) [µg/mL] | minimum inhibitory concentration (MIC), MRSA ([4]; methicillin-resistant CIB 8546) [µg/mL] | minimum inhibitory concentration (MIC), Candida albicans [6] [µg/mL]
CC1(C)S[C@@H]2[C@H](NC(=O)[C@H](N)c3ccccc3)C(=O)N2[C@H]1C(=O)O [Ampicillin, reference compound] | 1 (≈ 2.86 µM) | 2 (≈ 5.72 µM) | 8 (≈ 22.9 µM) | 128 (≈ 366 µM) | > 128 | – | – | – | – | –
CC[C@H](C)[C@H](NC(=O)[C@H](CCCCN)NC(=O)[C@H](CC(=O)O)NC(=O)[C@H](CCCCN)NC(=O)[C@@H](NC(=O)[C@@H](NC(=O)CNC(=O)[C@H](C)NC(=O)[C@@H](NC(=O)[C@H](CC(N)=O)NC(=O)[C@@H](NC(=O)[C@H](CC(C)C)NC(=O)[C@@H](NC(=O)[C@H](CC(N)=O)NC(=O)[C@H](CC(C)C)NC(=O)[C@@H](NC(=O)[C@@H](NC(=O)[C@H](CC(N)=O)NC(=O)[C@H](CCSC)NC(=O)[C@H](CC(C)C)NC(=O)CN)[C@@H](C)O)C(C)C)C(C)C)[C@@H](C)O)C(C)C)[C@@H](C)O)C(C)C)C(=O)N[C@@H](CCCCN)C(=O)N[C@H]1CSSC[C@@H](C(=O)O)NC(=O)CNC(=O)CNC(=O)[C@H]([C@@H](C)O)NC(=O)[C@H](Cc2ccccc2)NC(=O)[C@H](CCCCN)NC1=O [ranatuerin-2P-OG1] (H-GLMNTVLNVLTNVAGTVKDKIKCKFTGGC-OH; disulfide 23-29) | – | – | – | – | – | 64 (≈ 21.2 µM) | 256 (≈ 84.7 µM) | 128 (≈ 42.3 µM) | 64 (≈ 21.2 µM) | 512 (≈ 169 µM)
